Results published in patent US11013740B2, “Histone deacetylase 6 selective inhibitors for the treatment of cisplatin-induced peripheral neuropathy” (REGENACY PHARMACEUTICALS, LLC, priority 2015, dated 2021).

Key:
[1] = system: cisplatin-induced numbness; experiment: Adhesive removal test (ART) for numbness; assay type: in vivo, mice; conditions: treatment starting after two rounds of cisplatin; tested in week 5
Procedure: To quantify signs of cisplatin-induced pain, the von Frey test was used (see below) which measures the decrease in threshold to induce a withdrawal response to a mechanical stimulus (hyperalgesia, one of the characteristics of CIPN). To assess cisplatin-induced numbness, the adhesive removal test (ART) was used. The time it took for the mouse to have a behavioral response to the patch (i.e. shaking or attempted removal) was recorded as a measure of sensory deficit or numbness. To determine if behavioral changes were due to altered general activity or motor function, the locomotor activity (LMA) test and the rotarod test was used. For LMA mice were placed in an open-field testing cage and movement was measured for 5 minutes. For the rotarod, mice were trained for two days and then tested on the rotarod (with increasing speeds) for 5 minutes. Time on the rotarod was recorded. […] The time it took for the mouse to display a behavioral response to the patch (i.e. shaking or attempted removal) was recorded. […]

[2] = system: general activity; experiment: Locomotor activity (LMA) test; assay type: in vivo, mice; conditions: in combination with cisplatin
Procedure: (§1) To quantify signs of cisplatin-induced pain, the von Frey test was used (see below) which measures the decrease in threshold to induce a withdrawal response to a mechanical stimulus (hyperalgesia, one of the characteristics of CIPN). To assess cisplatin-induced numbness, the adhesive removal test (ART) was used. The time it took for the mouse to have a behavioral response to the patch (i.e. shaking or attempted removal) was recorded as a measure of sensory deficit or numbness. To determine if behavioral changes were due to altered general activity or motor function, the locomotor activity (LMA) test and the rotarod test was used. For LMA mice were placed in an open-field testing cage and movement was measured for 5 minutes. For the rotarod, mice were trained for two days and then tested on the rotarod (with increasing speeds) for 5 minutes. Time on the rotarod was recorded.

[3] = system: motor function; experiment: Rotarod test; assay type: in vivo, mice; conditions: in combination with cisplatin
Procedure: as §1

[4] = system: rat DRG neurons; experiment: Mitochondrial movement in cultured DRG neurons; assay type: cell-based; conditions: 100 nM co-administered with cisplatin, 3 hours
Procedure: DRG neurons (Lonza) were cultured for 5-7 days before the mitochondrial transport assay. 24 hrs prior to chemotherapy treatment cells were infected with Bacmam 2.0, which labeled mitochondria with GFP. Cells were treated with cisplatin (20-80 μM)+/−compound 001 (100 nM) for 3 hours. Imaging was performed using Zeiss 3i system. Time lapse images were acquired every 2 seconds over the course of 2 min. Image analysis was performed using Fiji and Multiple Kymograph plugin.

[5] = system: Cox IV, SDHA and VDAC; experiment: Western blot of mitochondrial marker proteins in tibial nerves; assay type: in vivo; conditions: cisplatin-treated mice, 11 injections of compound
Procedure: Tibial nerves retrieved from the XF24 assay plate were used for western blot analysis of levels of acetylated α-tubulin and mitochondrial proteins cytochrome c oxidase subunit IV (Cox IV), succinate dehydrogenase complex subunit A (SDHA) and voltage-dependent anion channel (VDAC). Tissues were homogenized in RIPA buffer (50 mM Tris-HCl, pH 7.5, 500 mM NaCl, 2.5 mM MgCl2, 1% NP-40, 10% glycerol) containing proteinase inhibitors by sonication and 10 μg of protein was separated by SDS/PAGE and transferred to PVDF membrane for immunoblot analyses. The membranes were blocked with 5% non-fat dry milk in PBST (phosphate-buffered saline containing 0.1% Tween 20) and probed with primary antibodies recognizing acetylated lysine (Rabbit monoclonal; Abcam, Cambridge, United Kingdom), α-tubulin (Rabbit polyclonal; Cell Signaling Technology, Danvers, Mass.), Cox IV (Mouse monoclonal; Life Technologies, Carlsbad, Calif.), SDHA (Rabbit polyclonal; Cell Signaling Technology, Danvers, Mass.) and VDAC (Rabbit polyclonal; Cell Signaling Technology, Danvers, Mass.) followed by HRP-conjugated anti-mouse, anti-rabbit, or anti-β-actin antibodies (Jackson Laboratory, Bar Harbor, Me.). […] The images were acquired using ImageQuant LAS 4000 (GE Healthcare Life Sciences, Little Chalfont, United Kingdom) and densitometrically analyzed using Image J software.

[6] = system: IENF density; experiment: Intra-epidermal nerve fiber (IENF) density in hind paw biopsies; assay type: in vivo, mice
Excerpt: For quantification of IENFs, biopsies from the plantar surface of the hind paws were collected after 3 doses or 11 doses of compound 001 or vehicle and processed as described previously (Qi-Liang Mao-Ying A K, et al. The anti-diabetic drug metformin protects against chemotherapy-induced peripheral neuropathy in a mouse model. Clinical Cancer Research. 2014); Krukowski K, et al. Prevention of chemotherapy-induced peripheral neuropathy by the small-molecule inhibitor pifithrin-mu. Pain. 2015; 156(11):2184-92). In brief, biopsies were fixed in Zamboni's fixative, cryoprotected in 20% sucrose and then frozen in Optimal Cutting Temperature compound (Sakura Finetek USA, Inc., Torrance, Calif.). 25-μm frozen sections were incubated with antibodies against the pan neuronal marker PGP9.5 (Rabbit; AbD Serotec, Oxford, United Kingdom) and Collagen IV (Goat; Southern Biotech, Birmingham, Ala.) followed by Alexa-594 donkey anti-rabbit (Life Technologies, Carlsbad, Calif.) and Alexa-488 donkey anti-goat (Invitrogen, Grand Island, N.Y.). Three randomly chosen sections from each mouse were imaged and quantified under a Leica SPE confocal microscope (Leica Microsystems, Buffalo Grove, Ill.). Nerve fibers that crossed the collagen-stained dermal/epidermal junction into the epidermis were counted and IENF density was determined as the total number of fibers/length of epidermis (IENFs/mm).

With `O=C(NO)c1cnc(NC2(c3ccccc3)CCC(F)(F)CC2)nc1` [compound 001] the “time to behavioral response to adhesive patch (numbness)” value [1] was “normalized the response time in this test”, the “general activity (locomotor activity)” value [2] was “no effect on general activity” and the “motor function (rotarod)” value [3] was “no effect”. The “percentage of moving mitochondria in axons (mitochondrial transport)” value [4] was “prevented this cisplatin-induced decrease in mitochondrial transport”, the “Cox IV level in tibial nerve” value [5] was “normalized Cox IV levels in the tibial nerve” and the “IENF density, prolonged regimen” value ([6]; 2 cycles of cisplatin and 11 doses of compound) was “completely reversed the cisplatin-induced loss of IENFs”. The “IENF density, short-term treatment” value ([6]; cisplatin-treated mice, short-term treatment (3 doses)) was “did not have any effect on IENF density”.
